Source: patent US9751847B2, “Methods and compositions related to neuroactive thiazoline compounds” (University of Utah Research Foundation, priority 2010, dated 2017)
“Also recorded” adds a separate entry of the source. Like-named read-outs stand apart in the source and are kept apart here.

Legend:
5HT-2B receptor = 5HT-2B receptor (Homo sapiens, UniProt P41595); assay: PDSP radioligand displacement receptor assay, 5HT2B; assay type: binding; conditions: for inhibition at 10 µM: primary assay, 10 μM compound; for Ki: secondary binding assay
Protocol: (§1) Receptor affinity assays were carried out according to methods as described at http://pdsp.med.unc.edu/ (accessed on Oct. 13, 2010).
(§2) Initial hits were obtained in radioligand displacement assays. […] Representative activity is highlighted in the table below showing in radioligand displacement activity at 10 μM of the in dicated compound. Ki was determined as indicated.

[1] = tested on: dorsal root ganglia (DRG) cells; assay: Dorsal root ganglion (DRG) assay, Fura-2 intracellular calcium with 25 mM KCl; assay type: cell-based, mice; conditions: pure compound 20 μg/mL, co-applied with 25 mM KCl, mouse DRG cells
Protocol: For details of the isolation and culture of dorsal root ganglion neurons see Light et al. Briefly, dorsal root ganglia (DRG) cells from cervical and lumbar regions were obtained from mice and used in an assay with bacterial culture extracts and pure compounds. DRG cells were suspended in medium with additives and loaded with Fura-2 AM (Molecular Probes), a fluorescent dye used to measure intracellular calcium levels. Experiments were performed at room temperature (20 to 25° C.) in a 24-well plate format using fluorescence microscopy. Individual cells were treated as single samples, so that the individual responses of diverse neuron subtypes from the DRG could be examined. After baseline measurements, the cells were treated with 25 mM KCl solution and then washed. After return to baseline, bacterial extracts, fractions, or pure compounds were applied. This solution was then later replaced with 25 mM KCl solution. The use of KCl permitted observation of direct, modulatory, as well as inhibitory and excitatory effects of the samples assayed.
Representative data for assay results obtained with a sample of crude extract (100 μg/mL; FIG. 33), as well as compounds 1, 2, and 8 (20 μg/mL; respectively, […]). The y-axis indicates the ratio between 340 nm and 380 nm fluorescence. A higher value indicates more Ca^2+ in the cell. The x-axis indicates time. Each line indicates an individual DRG cell followed over the experimental time course. In each experiment, KCl is applied either once or twice, the compounds or extracts are incubated with cells, then the compound is co-applied with KCl.

kappa opioid receptor = kappa opioid receptor (Homo sapiens, UniProt P41145); assay: PDSP radioligand displacement receptor assay, KOR; assay type: binding; conditions: for inhibition at 10 µM: radioligand displacement, primary assay, 10 μM compound; for Ki: secondary binding assay, test compound 1 to 10,000 nM
Protocol: as §1, §2

Ca2+ Channel = assay: PDSP radioligand displacement receptor assay, Ca2+ channel; assay type: binding; conditions: for inhibition (10 μM) Ca2+ Channel: radioligand displacement, primary assay, 10 μM compound; for Ki: secondary binding assay, test compound 1 to 10,000 nM
Protocol: as §1, §2

DAT = DAT (Homo sapiens, UniProt Q01959); assay: PDSP radioligand displacement receptor assay, DAT; assay type: binding; conditions: for inhibition at 10 µM: radioligand displacement, primary assay, 10 μM compound; for Ki: secondary binding assay, test compound 1 to 10,000 nM
Protocol: as §1, §2

histamine H1 receptor = histamine H1 receptor (Homo sapiens, UniProt P35367); assay: PDSP radioligand displacement receptor assay, H1; assay type: binding; conditions: for inhibition at 10 µM: radioligand displacement, primary assay, 10 μM compound; for Ki: secondary binding assay, test compound 1 to 10,000 nM
Protocol: as §1, §2

[2] = tested on: other serotonin receptors; assay: PDSP primary assay, other serotonin receptors; assay type: binding; conditions: 5HT-2B versus other serotonin receptors
Protocol: as §1, §2

[3] = test compound 1 to 10,000 nM, read-out: Ki (nM) 5HT2B

histamine H1 receptor, sequence (P35367 whole entry, species assumed): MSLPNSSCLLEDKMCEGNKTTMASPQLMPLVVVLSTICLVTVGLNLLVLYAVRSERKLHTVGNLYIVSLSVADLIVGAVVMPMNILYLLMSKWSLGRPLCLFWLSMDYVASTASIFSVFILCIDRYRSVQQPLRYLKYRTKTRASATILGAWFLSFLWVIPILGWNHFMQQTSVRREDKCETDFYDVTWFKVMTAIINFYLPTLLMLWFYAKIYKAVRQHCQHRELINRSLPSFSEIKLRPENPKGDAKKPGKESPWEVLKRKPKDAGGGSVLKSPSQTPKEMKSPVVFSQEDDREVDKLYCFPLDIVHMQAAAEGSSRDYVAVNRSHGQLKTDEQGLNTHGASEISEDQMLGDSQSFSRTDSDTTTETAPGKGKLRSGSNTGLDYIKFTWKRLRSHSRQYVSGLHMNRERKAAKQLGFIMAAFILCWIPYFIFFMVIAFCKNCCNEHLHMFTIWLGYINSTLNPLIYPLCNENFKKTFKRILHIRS
kappa opioid receptor, sequence (P41145 whole entry): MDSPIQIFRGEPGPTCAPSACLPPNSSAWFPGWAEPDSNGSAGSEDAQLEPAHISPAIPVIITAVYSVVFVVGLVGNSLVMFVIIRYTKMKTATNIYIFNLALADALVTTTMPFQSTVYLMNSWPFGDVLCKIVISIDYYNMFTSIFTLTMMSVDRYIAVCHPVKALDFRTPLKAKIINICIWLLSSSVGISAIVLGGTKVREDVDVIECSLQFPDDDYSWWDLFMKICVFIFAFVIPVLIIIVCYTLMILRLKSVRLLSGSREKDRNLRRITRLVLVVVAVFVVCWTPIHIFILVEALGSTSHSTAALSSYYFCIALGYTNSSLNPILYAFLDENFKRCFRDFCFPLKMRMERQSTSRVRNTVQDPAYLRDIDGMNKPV
DAT, sequence (Q01959 whole entry, species assumed): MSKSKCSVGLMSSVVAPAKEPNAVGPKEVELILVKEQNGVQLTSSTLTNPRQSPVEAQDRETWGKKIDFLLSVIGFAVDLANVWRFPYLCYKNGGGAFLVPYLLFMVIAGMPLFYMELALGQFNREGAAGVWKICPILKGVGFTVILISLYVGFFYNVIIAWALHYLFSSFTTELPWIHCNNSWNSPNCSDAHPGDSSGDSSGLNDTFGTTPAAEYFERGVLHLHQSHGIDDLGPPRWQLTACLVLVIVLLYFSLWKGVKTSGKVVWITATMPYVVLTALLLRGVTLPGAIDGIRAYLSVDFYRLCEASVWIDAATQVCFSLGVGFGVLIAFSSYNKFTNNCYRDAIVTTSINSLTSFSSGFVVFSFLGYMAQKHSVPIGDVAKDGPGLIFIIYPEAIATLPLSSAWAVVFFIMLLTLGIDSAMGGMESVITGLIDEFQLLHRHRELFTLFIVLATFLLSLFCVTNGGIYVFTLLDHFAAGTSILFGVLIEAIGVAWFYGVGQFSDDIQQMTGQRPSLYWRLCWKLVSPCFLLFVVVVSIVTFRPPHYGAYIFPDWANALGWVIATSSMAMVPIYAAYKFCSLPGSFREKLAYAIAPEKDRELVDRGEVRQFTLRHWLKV
5HT-2B receptor, sequence (P41595 whole entry): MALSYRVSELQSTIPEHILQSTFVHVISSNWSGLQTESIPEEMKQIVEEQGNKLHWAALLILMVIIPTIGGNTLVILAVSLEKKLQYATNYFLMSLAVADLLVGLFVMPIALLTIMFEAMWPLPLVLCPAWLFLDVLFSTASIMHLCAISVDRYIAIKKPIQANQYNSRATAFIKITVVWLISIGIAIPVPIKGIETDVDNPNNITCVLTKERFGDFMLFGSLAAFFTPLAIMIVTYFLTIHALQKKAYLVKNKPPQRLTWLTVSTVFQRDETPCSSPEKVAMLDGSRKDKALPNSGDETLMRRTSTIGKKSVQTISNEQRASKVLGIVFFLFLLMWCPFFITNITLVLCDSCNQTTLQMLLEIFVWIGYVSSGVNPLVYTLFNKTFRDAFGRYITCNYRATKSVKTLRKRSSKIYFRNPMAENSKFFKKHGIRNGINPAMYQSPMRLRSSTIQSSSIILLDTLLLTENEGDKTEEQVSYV

Structure (SMILES) | inhibition at 10 µM (5HT-2B receptor; radioligand displacement) [%] | Ki (5HT-2B receptor; [3]) [nM] | response in DRG assay (Ca2+ influx) [1] | inhibition at 10 µM (kappa opioid receptor) [%] | Ki (kappa opioid receptor) [nM] | inhibition (10 μM) Ca2+ Channel (Ca2+ Channel) [%] | inhibition at 10 µM (DAT) [%] | inhibition at 10 µM (histamine H1 receptor) [%] | selectivity for the 5HT-2B receptor versus the other serotonin receptors [2] [fold] | Ki (Ca2+ Channel) [nM] | Ki (DAT) [nM] | Ki (5HT-2B receptor; radioligand displacement, read-out: Ki (nM) vs 5-HT2B) [nM] | Ki (histamine H1 receptor) [nM]
OC[C@@H]1CSC(c2ccccc2O)=N1 [Compound 1, (R)-2-(4-(hydroxymethyl)-4,5-dihydrothiazol-2-yl)phenol] | 79.2 | 1360 | excitatory response; also recorded: increased Ca^2+ influx | 57.2 | > 10000 | −0.7 | -1.5 | 39 | – | – | – | – | –
C[C@@H]1SC(c2ccccc2O)=N[C@@H]1CO [Compound 2, 2-((4R,5S)-4-(hydroxymethyl)-5-methyl-4,5-dihydrothiazol-2-yl)phenol] | 89.7 | 505 | inhibitory response; also recorded: decreased Ca^2+ influx | 60.8 | > 10000 | – | 6 | 45.8 | ≥ 20 | 6600 | – | – | –
Cc1sc(-c2ccccc2O)nc1C=O [Compound 5, 2-(2-hydroxyphenyl)-5-methylthiazole-4-carbaldehyde] | 77 | 1540 | – | 37.1 | – | −18.9 | 88.3 | 42.5 | – | – | 5180 | – | –
NC(=O)c1csc(-c2ccccc2O)n1 [Compound 7, 2-(2-hydroxyphenyl)thiazole-4-carboxamide] | 84.9 | – | – | 31.8 | – | 29.6 | 2.4 | 88 | – | – | – | 1030 ± 76 | 517 ± 28
NC(=O)C1CSC(c2ccccc2O)=N1 (stereo not drawn) [Compound 8, 2-(2-hydroxyphenyl)-4,5-dihydrothiazole-4-carboxamide] | 65.8 | 1260 | excitatory response; also recorded: increased Ca^2+ influx | 50.4 | 3710 | −3.4 | 13.8 | 71.6 | – | – | – | – | 678 ± 46
C[C@@H]1SC(c2ccccc2O)=N[C@H]1[C@@H]1SC[C@](C)(C(=O)O)N1C [Compound 9, (2S,4S)-2-((4R,5S)-2-(2-hydroxyphenyl)-5-methyl-4,5-dihydrothiazol-4-yl)-3,4-dimethylthiazolidine-4-carboxylic acid] | 68 | 3920 | – | 41.4 | – | 0.1 | 83.8 | 16.3 | – | – | > 10000 | – | –
C[C@@H]1SC(c2ccccc2O)=N[C@H]1[C@H]1SC[C@](C)(C(=O)O)N1C [Compound 10, (2R,4S)-2-((4R,5S)-2-(2-hydroxyphenyl)-5-methyl-4,5-dihydrothiazol-4-yl)-3,4-dimethylthiazolidine-4-carboxylic acid] | 40.3 | 4700 | – | 31.9 | – | 110.4 | -0.3 | -3 | – | 9750 | – | – | –
